# Calls of active or inactive are those of the source. No cut-off for these calls is given here.
# Assays:
# Pseudomonas putida [1] = experiment: Antibacterial activity against Pseudomonas putida PAW340 assessed as decrease in bacterial count at 20 to 150 ug/ml; type: functional, organism-based
# Pseudomonas putida [2] = experiment: Inactivation of Pseudomonas putida PAW340 biofilms assessed as decrease in heat production by Chip calorimetry; type: functional, organism-based
# Pseudomonas putida [3] = experiment: Inactivation of Pseudomonas putida PAW340 biofilms assessed as decrease in heat production at 0.5 mM by Chip calorimetry; type: functional, organism-based
# Pseudomonas putida [4] = experiment: Inactivation of Pseudomonas putida PAW340 biofilms assessed as decrease in heat production at 0.5 mM within 1 hr by Chip calorimetry; type: functional; parameters: scale not given: the % may be the effect or the level left
# Pseudomonas putida [5] = experiment: Inactivation of Pseudomonas putida PAW340 biofilms assessed as decrease in ATP content at 0.5 mM by Chip calorimetry; type: functional, organism-based
# Neisseria gonorrhoeae = experiment: Antibacterial activity against Neisseria gonorrhoeae; type: functional
# Pseudomonas putida [6] = experiment: Inactivation of Pseudomonas putida PAW340 biofilms assessed as decrease in heat production at 3 to 30 ug/ml by Chip calorimetry; type: functional, organism-based; conditions: TDE = time-dependent effect
# Staphylococcus aureus = experiment: Antibacterial activity against Staphylococcus aureus; type: functional
# Pseudomonas aeruginosa = experiment: Antibacterial activity against Pseudomonas aeruginosa; type: functional
# Escherichia coli = experiment: Antibacterial activity against Escherichia coli; type: functional
# Pseudomonas putida [7] = experiment: Effect on Pseudomonas putida PAW340 biofilms assessed as heat production at 3 ug/ml by Chip calorimetry; type: functional
# Pseudomonas putida [8] = experiment: Effect on Pseudomonas putida PAW340 biofilms assessed as heat production at 70 ug/ml by Chip calorimetry; type: functional
# Pseudomonas putida [9] = experiment: Effect on Pseudomonas putida PAW340 biofilms assessed as heat production at 250 ug/ml by Chip calorimetry; type: functional
# Klebsiella pneumoniae = experiment: Antibacterial activity against Klebsiella pneumoniae; type: functional
smiles,measurement,setting,value
O=C(O)c1cn(C2CC2)c2cc(N3CCNCC3)c(F)cc2c1=O,Activity,Pseudomonas putida [1],Active
same,Activity,Pseudomonas putida [2],Dose-dependent effect
"O=[N+]([O-])c1ccc(O)c([N+](=O)[O-])c1 [2,4-DINITROPHENOL]",Activity,Pseudomonas putida [3],Active
same,Activity,Pseudomonas putida [4],90%
same,Activity,Pseudomonas putida [5],Active
NC[C@H]1O[C@H](O[C@H]2[C@H](O)[C@@H](O[C@H]3O[C@H](CO)[C@@H](O)[C@H](N)[C@H]3O)[C@H](N)C[C@@H]2N)[C@H](O)[C@@H](O)[C@@H]1O [KANAMYCIN],MIC,Neisseria gonorrhoeae,2 mg/L
same,Activity,Pseudomonas putida [6],tde
CN(C)[C@@H]1C(O)=C(C(N)=O)C(=O)[C@@]2(O)C(O)=C3C(=O)c4c(O)cccc4[C@@](C)(O)[C@H]3C[C@@H]12 [TETRACYCLINE],MIC,Staphylococcus aureus,0.15 mg/L
same,MIC,Pseudomonas aeruginosa,6.25 mg/L
same,MIC,Escherichia coli,0.07 mg/L
same,Activity,Pseudomonas putida [7],100%
same,Activity,Pseudomonas putida [8],118%
same,Activity,Pseudomonas putida [9],100%
same,MIC,Klebsiella pneumoniae,2.5 mg/L
